Test results: patent US20060235078A1, “Insulin secretion potentiator” (Use-Techno Corporation, priority 2003, published 2006)

system: KK-Ay mice; assay: blood glucose level in KK-Ay mice (genetic type II diabetes model) after oral administration; type: in vivo; details: 10 mg/kg oral, blood sampled before and at 4 and 7 hours after administration (tormentic acid: before and 4 hours), n=4, p 0.05
Procedure: KK-Ay mice (CLEA Japan, Inc.), a genetic type II diabetes model, were used as the test animals. […] The animal feeding conditions were at constant temperature (22±2° C.) throughout the test period, and the light-dark period was 12 hours (light period: 9:00 am-9:00 pm). The feed (CE-2, CLEA Japan, Inc.) and water (tap water) were made freely available. The test substance was forcefully administered to the KK-Ay mice using a glass syringe and oral probe. The dose of each test substance was 10 mg/kg. Blood was sampled from the ocular fundus, immediately prior to and at 4 hours and 7 hours after the administration (for tormentic acid, immediately prior to and at 4 hours after the administration). The blood glucose was measured with a Glucose CII Test Wako (Wako Pure Chemical Industries Co., Ltd.).
The test substances used for this example were: corosolic acid (isolated from banaba leaves), maslinic acid (isolated from banaba leaves), asiatic acid (purchased from LKT Laboratories), 2α,19α-dihydroxy-3-oxo-urs-12-en-28-oic acid (isolated from loquat callus), ursolic acid (purchased from LKT Laboratories), oleanolic acid (purchased from LKT Laboratories), α-amyrin (purchased from LKT Laboratories), β-amyrin (purchased from LKT Laboratories), hederagenin (purchased from LKT Laboratories), 18β-glycyrrhetinic acid (purchased from Wako Pure Chemical Industries Co., Ltd.), sapindoside B (isolated from soapberry), and tormentic acid (isolated from loquat callus).
The blood glucose levels were measured using four KK-Ay mice for each test substance. The measurement results were recorded as mean±SE. Significant change in the blood glucose level was judged by Student's t-test with the significance level (p value) as 0.05.

| Compound | hypoglycemic effect (change in blood glucose level) |
| --- | --- |
| C[C@@H]1CC[C@]2(C(=O)O)CC[C@]3(C)C(=CC[C@@H]4[C@@]5(C)C[C@@H](O)C(=O)C(C)(C)[C@@H]5CC[C@]43C)[C@@H]2[C@]1(C)O [2α,19α-dihydroxy-3-oxo-urs-12-en-28-oic acid] | significant hypoglycemic effects |
| CC1(C)[C@@H](O)CC[C@]2(C)[C@H]3C(=O)C=C4[C@@H]5C[C@@](C)(C(=O)O)CC[C@]5(C)CC[C@@]4(C)[C@]3(C)CC[C@@H]12 [18β-glycyrrhetinic acid] | no definite hypoglycemic effect |
| CC1(C)CC[C@]2(C(=O)O)CC[C@]3(C)C(=CC[C@@H]4[C@@]5(C)C[C@@H](O)[C@H](O)C(C)(C)[C@@H]5CC[C@]43C)[C@@H]2C1 [Maslinic acid, maslinic acid] | did not exhibit a significant hypoglycemic effect but did exhibit a tendency toward reducing blood glucose level |
| C[C@H]1[C@H](C)CC[C@]2(C(=O)O)CC[C@]3(C)C(=CC[C@@H]4[C@@]5(C)C[C@@H](O)[C@H](O)[C@@](C)(CO)[C@@H]5CC[C@]43C)[C@H]12 [asiatic acid] | significant hypoglycemic effects |
| C[C@H]1[C@H](C)CC[C@]2(C(=O)O)CC[C@]3(C)C(=CC[C@@H]4[C@@]5(C)C[C@@H](O)[C@H](O)C(C)(C)[C@@H]5CC[C@]43C)[C@H]12 [corosolic acid] | significant hypoglycemic effects |
| CC1(C)CC[C@]2(C(=O)O)CC[C@]3(C)C(=CC[C@@H]4[C@@]5(C)CC[C@H](O)[C@@](C)(CO)[C@@H]5CC[C@]43C)[C@@H]2C1 [hederagenin] | no definite hypoglycemic effect |
| CC1(C)CC[C@]2(C(=O)O)CC[C@]3(C)C(=CC[C@@H]4[C@@]5(C)CC[C@H](O)C(C)(C)[C@@H]5CC[C@]43C)[C@@H]2C1 [oleanolic acid] | no definite hypoglycemic effect |
| C[C@@H]1O[C@@H](O[C@H]2[C@H](O[C@H]3CC[C@@]4(C)[C@@H](CC[C@]5(C)[C@@H]4CC=C4[C@@H]6CC(C)(C)CC[C@]6(C(=O)O)CC[C@]45C)[C@]3(C)CO)OC[C@H](O)[C@@H]2O)[C@H](O)[C@H](O[C@@H]2OC[C@@H](O)[C@H](O)[C@H]2O)[C@H]1O [sapindoside B] | no definite hypoglycemic effect |
| C[C@@H]1CC[C@]2(C(=O)O)CC[C@]3(C)C(=CC[C@@H]4[C@@]5(C)C[C@@H](O)[C@H](O)C(C)(C)[C@@H]5CC[C@]43C)[C@@H]2[C@]1(C)O [tormentic acid] | significant hypoglycemic effects |
| C[C@H]1[C@H](C)CC[C@]2(C(=O)O)CC[C@]3(C)C(=CC[C@@H]4[C@@]5(C)CC[C@H](O)C(C)(C)[C@@H]5CC[C@]43C)[C@H]12 [ursolic acid] | no definite hypoglycemic effect |
| C[C@H]1[C@H](C)CC[C@]2(C)CC[C@]3(C)C(=CC[C@@H]4[C@@]5(C)CC[C@H](O)C(C)(C)[C@@H]5CC[C@]43C)[C@H]12 [α-amyrin] | no definite hypoglycemic effect |
| CC1(C)CC[C@]2(C)CC[C@]3(C)C(=CC[C@@H]4[C@@]5(C)CC[C@H](O)C(C)(C)[C@@H]5CC[C@]43C)[C@@H]2C1 [β-amyrin] | no definite hypoglycemic effect |

system: borderline diabetic patients; assay: glucose tolerance test after administration of corosolic acid or placebo, blood insulin level (IRI) assayed; type: in vivo, human; details: 31 borderline diabetic patients, 10 mg oral, 75 g oral glucose load, 30 minutes after start of glucose tolerance test
Procedure: The following test was conducted to confirm that corosolic acid has an early insulin secretion stimulating effect. A glucose tolerance test was performed after administration of corosolic acid or a placebo, in a double-blind crossover manner, and the blood insulin level (IRI: immunoreactive insulin) was assayed. Significant change in the IRI was judged by Student's t-test with the significance level (p value) as 0.05.
First, 31 borderline diabetic patients as test subjects were orally administered corosolic acid (10 mg, ≧99% purity) or a placebo, and blood was sampled immediately thereafter with the blood insulin level at that time designated as the value at 0 minutes. Immediately after blood sampling, 75 g of glucose was orally administered to each test subject to start a glucose tolerance test, and blood was sampled after periods of 30 minutes, 60 minutes, 90 minutes, 120 minutes and 180 minutes for measurement of the blood insulin level.
FIG. 1 is a graph showing changes in the blood insulin levels during the glucose tolerance test. The horizontal axis represents time (minutes) after start of the glucose tolerance test, and the vertical axis represents IRI (μU/mL). In the graph, (a) is a case with administration of corosolic acid and (b) is a case with administration of the placebo.

| Compound | blood insulin level (IRI) compared to placebo |
| --- | --- |
| C[C@H]1[C@H](C)CC[C@]2(C(=O)O)CC[C@]3(C)C(=CC[C@@H]4[C@@]5(C)C[C@@H](O)[C@H](O)C(C)(C)[C@@H]5CC[C@]43C)[C@H]12 [corosolic acid] | significant increase in blood insulin level |

same assay, conditions: 31 borderline diabetic patients, 10 mg oral, 75 g oral glucose load, 120 minutes after start of glucose tolerance test

| Compound | blood insulin level (IRI) compared to placebo |
| --- | --- |
| C[C@H]1[C@H](C)CC[C@]2(C(=O)O)CC[C@]3(C)C(=CC[C@@H]4[C@@]5(C)C[C@@H](O)[C@H](O)C(C)(C)[C@@H]5CC[C@]43C)[C@H]12 [corosolic acid] | significant drop in blood insulin level |
